Source: US4371544A, “Pharmaceutical composition containing 1,1,3,5-substituted biuret compound” (Taiho Pharmaceutical Company Limited, priority 1979, dated 1983)
Read-outs that look alike come from different tables or passages of the source.

Legend:
[1] = tested on: Wistar strain of male rats; assay: Anti-inflammatory activity (acute carrageenin-induced inflammatory test, hindpaw); type: in vivo, rat (Wistar); details: for inhibition in vivo at 100 mg/kg: Rattus norvegicus, read-out: Anti-inflammatory activity, inflammation inhibitory ratio
Experimental: (§1) Next, several tests for determining the pharmacological properties, in that acute toxicity, anti-pyretic activity, analgesic activity and anti-inflammatory activity of the present 1,1,3,5-substituted biuret compounds of the formula (1) were conducted and the test results are shown in Table (2). In the tests, each compounds to be tested was used as a suspension in 0.25% carboxymethylcellulose solution. Methods for testing are explained as follows:
According to the method of acute carrageenin-induced inflammatory test [Folia Pharmacologia Japonica, Vol. 56, pp. 575 (1960)], the Wistar strain of male rats (body weight, 150-180 g) were used as test animals. The rats were fasted overnight, 100 mg/kg body weight of the test compound was administered orally, then 1 hour after the administration, 0.1 ml of 1% carrageenin solution, as the inflammation inducing agent, was injected subcutaneously to the hindpaw of the rat and the volume of the hindpaw was measured at time sequences, Anti-inflammatory activity of the test compound was calculated as inflammation inhibitory ratio (%) at 3 hours after the injection of inflammation inducing agent.

[2] = tested on: Wistar strain of male rats; assay: Anti-pyretic activity (dry-yeast-induced fever); type: in vivo, rat (Wistar); details: oral (dose not given), up to 4 hours after administration
Experimental: as §1
According to the method reported by Tanabe [Folia Pharmacologia Japonica, Vol. 73, pp. 803 (1977)], the Wistar strain of male rats (150-180 g, body weight) were used as test animals. The rats were fasted overnight, and 1 ml/100 g (body weight) of 10% dry-yeast suspension were subcutaneously injected on the back of the rats. Five hours after the injection, the test compound was administered orally, then the body temperature of the rat was measured at time sequences. Anti-pyretic activity of the test compound was determined as the FI (febril index) by integrating pyrogenetic curve up to 4 hours after the administration of the test compound with time, and indicated as inhibitory ratio (%) shown by the following formula, [formula]

ddy strain of male mice [3] = assay: Analgesic activity, acetic acid-induced stretching method; type: in vivo, mouse (ddy); details: for ED50: oral, Δ mark, range in parentheses
Experimental: as §1
According to the method reported by Koster et al., [Fed. Proc., Vol. 18, pp. 412 (1959)], the ddy strain of male mice (body weight, 20-25 g) were used as test animals. The mice were fasted overnight, 100 mg/kg body weight of the test compound was administered orally, then 1 hour after the administration, 0.2 ml of 0.7% acetic acid solution was injected intraperitoneally. The acetic acid-induced stretching symptom of mouse was observed. Analgesic activity of the test compound was calculated as the inhibitory ratio (%). In Table 2, the values in parentheses show the data obtained from the test by using the dosage other than 100 mg/kg body weight. Further, the values indicated with Δ marks show 50% effective dose, ED50 (mg/kg body weight).

ddy strain of male mice [4] = assay: Analgesic activity, Haffner method (morphine threshold dose, clamp); type: in vivo, mouse (ddy); details: for ED50: oral, Δ mark, range in parentheses
Experimental: as §1
According to the modified method reported by Fujimura et. al., [Bulletin of the Institute for Chemical Research, Kyoto University, No. 25, pp. 36 (1951)], the ddy strain of male mice (body weight, 20-25 g) were used as test animals. The mice were fasted overnight, 100 mg/kg body weight of the test compound was administered orally, then 45 minutes after the administration, the threshold amount (1.5-2.5 mg/kg body weight) of morphine hydrochloride was injected subcutaneously. Then 1-hour pain reaction of the mouse caused by a clamp was observed. Analgesic activity of the test compound was calculated as the inhibitory ratio (%). In Table 2, the values in parentheses show the data obtained from the test by using the dosage other than 100 mg/kg body weight. Further, the values indicated with Δ marks show 50% effective dose, ED50 (mg/kg body weight).

ddy strain of male mice [5] = assay: Acute toxicity (oral, mice, 7 days observation); type: in vivo
Experimental: as §1
The ddy strain of male mice (body weight, 20-25 g) were used as test animals. The mice were fasted overnight and the compound to be tested was administered orally. […] The lethal dose (mg/kg, body weight) of the test compound was determined in connection with the death number of mice/the number of mice tested. In Table 2, the values indicated with Δ marks are 50% lethal dose, LD50 (mg/kg, body weight).

[6] = 100 mg/kg oral, 3 hours after carrageenin
[7] = 100 mg/kg oral, 1 hour before acetic acid
[8] = 100 mg/kg oral, 45 minutes before morphine hydrochloride
[9] = Mus musculus, po, read-out: Analgesic activity, acetic acid-induced stretching method, inhibitory ratio
[10] = Mus musculus, 200 mg/kg oral, read-out: Analgesic activity, Haffner method, inhibitory ratio

CN(C)C(=O)N(C)C(=O)Nc1ccc(Br)cc1 [Compound No. 16, 1,1,3-Trimethyl-5-(4-bromophenyl)biuret]
Anti-inflammatory activity, inflammation inhibitory ratio ([1]; 100 mg/kg oral, (2 hours)): 48% | Anti-pyretic activity, inhibitory ratio (febril index) [2]: 103% | ED50 (ddy strain of male mice [3]; Mus musculus): 60 mg/kg | ED50 (ddy strain of male mice [4]; Mus musculus): 74 mg/kg

CN(C)C(=O)N(C)C(=O)Nc1ccccc1C(F)(F)F [Compound No. 17, 1,1,3-Trimethyl-5-(2-trifluoromethylphenyl)biuret]
Anti-inflammatory activity, inflammation inhibitory ratio [1, 6]: 66% | Anti-pyretic activity, inhibitory ratio (febril index) [2]: 65% | Analgesic activity, acetic acid-induced stretching method, inhibitory ratio (ddy strain of male mice [3]; [7]): 12.5% | Acute toxicity: death number of mice/number of mice tested (ddy strain of male mice [5]; 1000 mg/kg oral): 1/4 | Analgesic activity, Haffner method, inhibitory ratio (ddy strain of male mice [4]; [8]): 37.5%

COc1ccc(NC(=O)N(C)C(=O)N(C)C)cc1 [Compound No. 23, 1,1,3-Trimethyl-5-(4-methoxyphenyl)biuret]
Anti-inflammatory activity, inflammation inhibitory ratio [1, 6]: 33% | Anti-pyretic activity, inhibitory ratio (febril index) [2]: 75% | ED50 (ddy strain of male mice [3]; Mus musculus): 39 mg/kg | ED50 (ddy strain of male mice [4]; Mus musculus): 80 mg/kg

Cc1ccc(NC(=O)N(C)C(=O)N(C)C)cc1 [Compound No. 28, 1,1,3-Trimethyl-5-(4-methylphenyl)biuret]
Anti-inflammatory activity, inflammation inhibitory ratio ([1]; 100 mg/kg oral, (2 hours)): 23% | Anti-pyretic activity, inhibitory ratio (febril index) [2]: 52% | ED50 (ddy strain of male mice [3]; Mus musculus): 33 mg/kg | Acute toxicity: death number of mice/number of mice tested (ddy strain of male mice [5]; 2000 mg/kg oral): 0/4 | ED50 (ddy strain of male mice [4]; Mus musculus): 80 mg/kg

CN(C)C(=O)N(C(=O)Nc1ccccc1)c1ccccc1 [Compound No. 42, 1,1-dimethyl-3,5-diphenylbiuret]
inhibition in vivo at 100 mg/kg [1, 6]: 34% | Anti-pyretic activity, inhibitory ratio (febril index) [2]: 14% | inhibition in vivo at 200 mg/kg (ddy strain of male mice [3]; [9]): 62.5% | Acute toxicity: death number of mice/number of mice tested (ddy strain of male mice [5]; 1000 mg/kg oral): 0/4 | Acute toxicity: death number of mice/number of mice tested (ddy strain of male mice [5]; 2000 mg/kg oral): 3/4 | inhibition in vivo at 200 mg/kg (ddy strain of male mice [4]; [10]): 50%

CCCNC(=O)N(C)C(=O)N(C)c1ccccc1 [Compound No. 55, 1,3-Dimethyl-1-phenyl-5-n-propylbiuret]
inhibition in vivo at 100 mg/kg [1, 6]: 73% | Anti-pyretic activity, inhibitory ratio (febril index) [2]: 80% | ED50 (ddy strain of male mice [3]; Mus musculus): 80 mg/kg | Acute toxicity: death number of mice/number of mice tested (ddy strain of male mice [5]; 1000 mg/kg oral): 1/4 | Acute toxicity: death number of mice/number of mice tested (ddy strain of male mice [5]; 1500 mg/kg oral): 4/4 | ED50 (ddy strain of male mice [4]; Mus musculus): 90 mg/kg

CCN(CC)C(=O)N(C)C(=O)Nc1ccccc1 [Compound No. 57, 1,1-diethyl-3-methyl-5-phenylbiuret]
inhibition in vivo at 100 mg/kg ([1]; po, 3 h): 23% | Anti-pyretic activity, inhibitory ratio (febril index) [2]: 19% | inhibition in vivo at 100 mg/kg (ddy strain of male mice [3]; [9]): 37.5% | Acute toxicity: death number of mice/number of mice tested (ddy strain of male mice [5]; 2000 mg/kg oral): 1/4 | inhibition in vivo at 200 mg/kg (ddy strain of male mice [4]; [10]): 50%

CN(C)C(=O)N(C)C(=O)Nc1c(F)c(F)cc(F)c1F [compound 9, 1,1,3-Trimethyl-5-(2,3,5,6-tetrafluorophenyl)biuret]
Anti-inflammatory activity, inflammation inhibitory ratio [1, 6]: 24% | Anti-pyretic activity, inhibitory ratio (febril index) [2]: 33% | Analgesic activity, acetic acid-induced stretching method, inhibitory ratio (ddy strain of male mice [3]; [7]): 87.5% | Acute toxicity: death number of mice/number of mice tested (ddy strain of male mice [5]; 500 mg/kg oral): 0/4 | Acute toxicity: death number of mice/number of mice tested (ddy strain of male mice [5]; 1000 mg/kg oral): 4/4 | Analgesic activity, Haffner method, inhibitory ratio (ddy strain of male mice [4]; [8]): 50%

CN(C)C(=O)N(C)C(=O)Nc1cccc(Cl)c1 [compound 11, 1,1,3-Trimethyl-5-(3-chlorophenyl)biuret]
Anti-inflammatory activity, inflammation inhibitory ratio ([1]; 100 mg/kg oral, (2 hours)): 30% | Anti-pyretic activity, inhibitory ratio (febril index) [2]: 43% | Analgesic activity, acetic acid-induced stretching method, inhibitory ratio (ddy strain of male mice [3]; [7]): 62.5% | Analgesic activity, Haffner method, inhibitory ratio (ddy strain of male mice [4]; 200 mg/kg oral): 75%

CN(C)C(=O)N(C)C(=O)Nc1cccc(C(F)(F)F)c1 [compound 18, 1,1,3-Trimethyl-5-(3-trifluoromethylphenyl)biuret]
Anti-inflammatory activity, inflammation inhibitory ratio ([1]; 100 mg/kg oral, (2 hours)): 32% | Anti-pyretic activity, inhibitory ratio (febril index) [2]: 62% | Analgesic activity, acetic acid-induced stretching method, inhibitory ratio (ddy strain of male mice [3]; [7]): 37.5% | Acute toxicity: death number of mice/number of mice tested (ddy strain of male mice [5]; 1000 mg/kg oral): 0/4 | Acute toxicity: death number of mice/number of mice tested (ddy strain of male mice [5]; 2000 mg/kg oral): 4/4 | ED50 (ddy strain of male mice [4]; Mus musculus): 64 mg/kg

Cc1ccccc1NC(=O)N(C)C(=O)N(C)C [compound 26, 1,1,3-Trimethyl-5-(2-methylphenyl)biuret]
Anti-inflammatory activity, inflammation inhibitory ratio [1, 6]: 29% | Anti-pyretic activity, inhibitory ratio (febril index) [2]: 41% | Analgesic activity, acetic acid-induced stretching method, inhibitory ratio (ddy strain of male mice [3]; [7]): 37.5% | Analgesic activity, Haffner method, inhibitory ratio (ddy strain of male mice [4]; [8]): 50%

Cc1cccc(NC(=O)N(C)C(=O)N(C)C)c1 [compound 27, 1,1,3-Trimethyl-5-(3-methylphenyl)biuret]
Anti-inflammatory activity, inflammation inhibitory ratio [1, 6]: 28% | Anti-pyretic activity, inhibitory ratio (febril index) [2]: 31% | Analgesic activity, acetic acid-induced stretching method, inhibitory ratio (ddy strain of male mice [3]; [7]): 75% | Acute toxicity: death number of mice/number of mice tested (ddy strain of male mice [5]; 2000 mg/kg oral): 2/4 | Analgesic activity, Haffner method, inhibitory ratio (ddy strain of male mice [4]; [8]): 37.5%

CCN(C(=O)Nc1ccccc1)C(=O)N(C)C [compound 36, 1,1-Dimethyl-3-ethyl-5-phenylbiuret]
Anti-inflammatory activity, inflammation inhibitory ratio [1, 6]: 23% | Anti-pyretic activity, inhibitory ratio (febril index) [2]: 12% | Analgesic activity, acetic acid-induced stretching method, inhibitory ratio (ddy strain of male mice [3]; [7]): 62.5% | Acute toxicity: death number of mice/number of mice tested (ddy strain of male mice [5]; 1000 mg/kg oral): 0/4 | Acute toxicity: death number of mice/number of mice tested (ddy strain of male mice [5]; 2000 mg/kg oral): 3/4 | inhibition in vivo at 100 mg/kg (ddy strain of male mice [4]; Mus musculus, 100 mg/kg oral, 45 minutes before morphine hydrochloride, read-out: Analgesic activity, Haffner method, inhibitory ratio): 62.5%

CCCCN(C(=O)Nc1ccccc1)C(=O)N(C)C [compound 38, 1,1-Dimethyl-3-n-butyl-5-phenylbiuret]
inhibition in vivo at 100 mg/kg [1, 6]: 31% | Anti-pyretic activity, inhibitory ratio (febril index) [2]: 18% | Analgesic activity, acetic acid-induced stretching method, inhibitory ratio (ddy strain of male mice [3]; [7]): 37.5% | Acute toxicity: death number of mice/number of mice tested (ddy strain of male mice [5]; 1000 mg/kg oral): 0/4 | Acute toxicity: death number of mice/number of mice tested (ddy strain of male mice [5]; 2000 mg/kg oral): 3/4 | inhibition in vivo at 200 mg/kg (ddy strain of male mice [4]; [10]): 37.5%

CCCN(C)C(=O)N(C)C(=O)Nc1ccccc1 [compound 46, 1,3-Dimethyl-1-n-propyl-5-phenylbiuret]
Anti-inflammatory activity, inflammation inhibitory ratio ([1]; 100 mg/kg oral, (2 hours)): 26% | Anti-pyretic activity, inhibitory ratio (febril index) [2]: 44% | Analgesic activity, acetic acid-induced stretching method, inhibitory ratio (ddy strain of male mice [3]; 60 mg/kg oral): 75% | Acute toxicity: death number of mice/number of mice tested (ddy strain of male mice [5]; 1000 mg/kg oral): 1/4 | Acute toxicity: death number of mice/number of mice tested (ddy strain of male mice [5]; 2000 mg/kg oral): 4/4 | Analgesic activity, Haffner method, inhibitory ratio (ddy strain of male mice [4]; [8]): 37.5%
